Measured values: patent US8440724B2, “Inhibiting neurotransmitter reuptake” (Mayo Foundation for Medical Education and Research, priority 2008, dated 2013)
“Also recorded” adds a separate entry of the source. Like-named read-outs stand apart in the source and are kept apart here.

Experiments:
[1] = target: T1, human serotonin transporter (hSERT) (Homo sapiens, UniProt P31645); experiment: Radioligand binding to cloned hSERT, [3H]citalopram, HEK-293 cell membranes; settings: for Kd: Geometric Mean ± SEM, HCl salts, read-out: Equilibrium Dissociation Constant (KD) for Transporter Binding, hSERT (S); for Binding at hSERT compared to PRC200-SS: in words
T1 construct: expressed in transfected cells; host or cells: HEK-293, stably transfected
T1 sequence (P31645 whole entry): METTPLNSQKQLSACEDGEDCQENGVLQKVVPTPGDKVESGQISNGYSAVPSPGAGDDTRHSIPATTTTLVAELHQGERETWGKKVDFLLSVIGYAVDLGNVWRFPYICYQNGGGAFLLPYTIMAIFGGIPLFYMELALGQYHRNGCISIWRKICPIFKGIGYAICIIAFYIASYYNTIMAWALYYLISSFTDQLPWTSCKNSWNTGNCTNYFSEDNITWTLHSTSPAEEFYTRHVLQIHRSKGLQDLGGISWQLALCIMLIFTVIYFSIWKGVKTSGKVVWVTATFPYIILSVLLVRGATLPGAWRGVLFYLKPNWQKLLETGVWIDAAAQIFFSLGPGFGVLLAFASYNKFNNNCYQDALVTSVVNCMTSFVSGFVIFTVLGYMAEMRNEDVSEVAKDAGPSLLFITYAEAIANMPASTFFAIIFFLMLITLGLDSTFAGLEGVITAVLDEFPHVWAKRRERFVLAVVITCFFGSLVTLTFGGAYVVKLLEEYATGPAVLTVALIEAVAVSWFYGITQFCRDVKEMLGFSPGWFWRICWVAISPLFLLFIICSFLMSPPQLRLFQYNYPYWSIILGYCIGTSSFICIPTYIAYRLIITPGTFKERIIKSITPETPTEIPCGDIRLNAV
Protocol: (§1) HEK-293 cells expressing the recombinant hSERT or hDAT were incubated with Dulbecco's modified Eagles medium (MEM) supplemented with 0.1 mM nonessential amino acid solution for MEM, 5% v/v fetal bovine serum and 1 U/mL penicillin/streptomycin solution. Cells expressing the hNET transporter were incubated with Dulbecco's modified Eagles medium supplemented with 10% v/v fetal bovine serum and 100 U/mL penicillin/streptomycin solution and 2 mM L-glutamine. The cells were grown until 70-80% confluent on 175 cm^2 flasks in a humidified 10% CO2/90% air environment at 37° C., with the selecting antibiotic Geneticin sulfate at 250 μg/mL. The cells were incubated in 10% CO2, 90% air at 37° C. and 100% humidity.
(§2) Cell membranes containing hSERT, hNET, or hDAT were prepared from the cell lines to assay ligand binding for each of the transporters. […] The washed cells were incubated for 5 minutes at 37° C. in 10 mL solution 1 containing 100 mM ethylene glycol-bis N,N,N′,N′-tetraacetic acid (EGTA). The cells were then scraped from the flask surface with a rubber spatula, placed into a centrifuge tube, and collected by centrifugation at 1000×g for 5 minutes at 4° C. The resulting supernatant was discarded, and the cell pellet was resuspended in 0.5 to1.0 mL of the appropriate binding buffer (described below). The resuspended cell pellet was homogenized using a Polytron for 10 seconds at setting 6. The resulting homogenate was centrifuged at about 36,000×g for 10 minutes at 4° C. The supernatant was discarded, and the pellet was resuspended in the same volume of the appropriate binding buffer and centrifuged again. The supernatant was discarded, and the final pellet containing cell membranes was resuspended in the appropriate binding buffer and stored at −80° C. until use.
Radioligand binding assays for the indicated transporters were performed as follows. To assess binding to the cloned hSERT, cells expressing hSERT were homogenized in 50 mM Tris-HCl with 120 mM NaCl and 5 mM KCl (pH 7.4). The binding reaction consisted of 10 μg cell membrane protein, […] [^3H]citalopram (citalopram, [N-methyl-^3H], specific activity 79.0 Ci/mmol; PerkinElmer, Boston, Mass.), and varying concentrations of either unlabeled citalopram or the test compound. A reaction to determine non-specific binding consisted of 10 μg cell membrane protein, 0.5 nM [^3H]citalopram, and 1 μM final concentration of unlabeled citalopram. The reactions were incubated at 22° C. for 60 minutes. Following incubation, the reactions were terminated by rapid filtration through separate GF/B filter strips pretreated with 0.2% polyethylenimine in a 48-well Brandel cell harvester. The cell membrane-containing filter strips were then rinsed five times with ice-cold 0.9% NaCl. After rinsing, individual filters were cut from the strip and placed in a scintillation vial containing 6.5 mL of Redi-Safe (Beckman-Coulter, Fullerton, Calif.).
(§3) The program was modified to calculate the Hill coefficient (nH). Data are presented as geometric mean±S.E.M. of at least three independent experiments. One-component models and two-component models were compared using the root mean square error of each fit and the F test.

[2] = target: T2, human dopamine transporter (hDAT) (Homo sapiens, UniProt Q01959); experiment: Radioligand binding to cloned hDAT, [3H]WIN35428, HEK-293 cell membranes; settings: for Binding at hDAT compared to PRC200-SS: in words
T2 construct: expressed in transfected cells; host or cells: HEK-293, stably transfected
T2 sequence (Q01959 whole entry): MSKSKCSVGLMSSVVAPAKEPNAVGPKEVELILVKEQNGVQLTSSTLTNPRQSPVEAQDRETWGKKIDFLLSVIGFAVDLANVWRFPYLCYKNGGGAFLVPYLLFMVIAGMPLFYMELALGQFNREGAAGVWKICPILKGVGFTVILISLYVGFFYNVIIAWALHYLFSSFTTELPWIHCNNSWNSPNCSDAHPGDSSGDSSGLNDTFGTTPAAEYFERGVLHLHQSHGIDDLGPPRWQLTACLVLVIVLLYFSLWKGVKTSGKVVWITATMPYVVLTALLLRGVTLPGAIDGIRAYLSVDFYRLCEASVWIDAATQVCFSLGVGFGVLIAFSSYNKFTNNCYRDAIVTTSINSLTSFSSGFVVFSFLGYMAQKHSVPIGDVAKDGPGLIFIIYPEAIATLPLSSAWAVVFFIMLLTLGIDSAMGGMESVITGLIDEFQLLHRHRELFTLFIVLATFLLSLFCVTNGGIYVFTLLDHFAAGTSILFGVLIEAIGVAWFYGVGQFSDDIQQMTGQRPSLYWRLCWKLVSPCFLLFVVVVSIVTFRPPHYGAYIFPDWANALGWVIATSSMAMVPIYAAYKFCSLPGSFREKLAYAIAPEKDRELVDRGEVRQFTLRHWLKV
Protocol: as §1, §2
To assess binding to the cloned hDAT, cells expressing hDAT were homogenized in 50 mM Tris-HCl with 120 mM NaCl (pH 7.4). The binding reaction contained 15 μg cell membrane protein, 1 nM [^3H]WIN35428 (WIN35428, [N-methyl-^3H], specific activity 85.9 Ci/mmol; PerkinElmer, Boston, Mass.), and varying concentrations of either unlabeled WIN35428 or the test compound. A reaction to determine non-specific binding contained 15 μg cell membrane protein, 1 nM [^3H]WIN35428, and 10 μM final concentration of unlabeled WIN35428. The reactions were incubated at 22° C. for 1 hour. Following incubation, the reactions were terminated by rapid filtration through separate GF/B filter strips pretreated with 0.2% polyethylenimine in a 48-well Brandel cell harvester. The cell membrane-containing filter strips were then rinsed five times with ice-cold 0.9% NaCl. After rinsing, individual filters were cut from the strip and placed in a scintillation vial containing 6.5 mL of Redi-Safe (Beckman-Coulter, Fullerton, Calif.).
as §3

hSERT, hNET, hDAT = experiment: Human transporter binding: rank order and range of potency over the three transporters; settings: for Potency (rank-order of potency of binding; S = hSERT, N = hNET, D = hDAT): from KD values; for Potency Range (difference between most potent and least potent binding): ratio of KD over hSERT, hNET, hDAT
Text: as §3

[3] = target: T3, human norepinephrine transporter (hNET) (Homo sapiens, UniProt P23975); experiment: Radioligand binding to cloned hNET, [3H]nisoxetine, HEK-293 cell membranes; settings: for Kd: Geometric Mean ± SEM, HCl salts, read-out: Equilibrium Dissociation Constant (KD) for Transporter Binding, hNET (N)
T3 construct: expressed in transfected cells; host or cells: HEK-293, stably transfected
T3 sequence (P23975 whole entry): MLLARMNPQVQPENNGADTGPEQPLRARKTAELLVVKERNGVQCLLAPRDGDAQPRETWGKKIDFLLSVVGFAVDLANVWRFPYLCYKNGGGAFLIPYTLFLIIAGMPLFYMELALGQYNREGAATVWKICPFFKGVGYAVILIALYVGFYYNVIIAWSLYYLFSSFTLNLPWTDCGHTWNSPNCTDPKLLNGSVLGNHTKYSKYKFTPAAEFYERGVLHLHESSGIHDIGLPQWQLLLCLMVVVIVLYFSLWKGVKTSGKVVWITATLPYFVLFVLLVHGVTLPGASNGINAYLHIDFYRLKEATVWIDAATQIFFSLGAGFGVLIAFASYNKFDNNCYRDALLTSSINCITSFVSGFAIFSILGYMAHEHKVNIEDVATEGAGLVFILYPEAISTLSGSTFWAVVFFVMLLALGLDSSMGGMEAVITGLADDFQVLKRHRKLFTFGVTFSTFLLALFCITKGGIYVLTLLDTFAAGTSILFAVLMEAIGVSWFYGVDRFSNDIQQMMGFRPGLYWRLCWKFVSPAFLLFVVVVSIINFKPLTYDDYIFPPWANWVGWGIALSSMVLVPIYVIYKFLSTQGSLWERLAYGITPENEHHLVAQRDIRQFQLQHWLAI
Protocol: as §1, §2
To assess binding to the cloned hNET, cells expressing hNET were homogenized in 50 mM Tris-HCl with 300 mM NaCl and 5 mM KCl (pH 7.4). The binding reaction consisted of 5 μg cell membrane protein, 0.5 nM [^3H]nisoxetine (nisoxetine HCl, [N-methyl-^3H], specific activity 82.0 Ci/mmol; Amersham, Arlington Hts., Ill.), and varying concentrations of either unlabeled nisoxetine or the test compound. A reaction to determine non-specific binding consisted of 5 μg cell membrane protein, 0.5 nM [^3H]nisoxetine, and 1 μM final concentration of unlabeled nisoxetine. The reactions were incubated at 22° C. for 60 minutes. Following incubation, the reactions were terminated by rapid filtration through separate GF/B filter strips pretreated with 0.2% polyethylenimine in a 48-well Brandel cell harvester. The cell membrane-containing filter strips were then rinsed five times with ice-cold 0.9% NaCl. After rinsing, individual filters were cut from the strip and placed in a scintillation vial containing 6.5 mL of Redi-Safe (Beckman-Coulter, Fullerton, Calif.).
as §3

[4] = Geometric Mean ± SEM, HCl salts, read-out: Equilibrium Dissociation Constant (KD) for Transporter Binding, hDAT (D)

CNC[C@@H](c1ccc2ccccc2c1)[C@@H](N)c1ccccc1 (racemic) [MCJ001-NH2-(±)-RR, (2R,3R)-N1-methyl-2-(naphthalen-2-yl)-3-phenylpropane-1,3-diamine]
Kd [1]: 0.00127 ± 6e-05 µM
Binding at hSERT compared to PRC200-SS [1]: greater binding at hSERT
Kd [2]: 0.028 ± 0.004 µM
Potency (rank-order of potency of binding; S = hSERT, N = hNET, D = hDAT) (hSERT, hNET, hDAT): S > N > D
Potency Range (difference between most potent and least potent binding) (hSERT, hNET, hDAT): 22 fold
Kd [3]: 0.0025 ± 0.0001 µM

CNCC[C@H](Oc1cccc2ccccc12)c1cccs1 [Duloxetine, reference compound]
Potency (rank-order of potency of binding; S = hSERT, N = hNET, D = hDAT) (hSERT, hNET, hDAT): S > N > D

c1ccc([C@H]2OCNC[C@@H]2c2ccc3ccccc3c2)cc1 [MCJ000-OH-Cyc-SS, (5S,6S)-5-(naphthalen-2-yl)-6-phenyl-1,3-oxazinane]
Kd [1]: 0.008 ± 0.001 µM
Kd [2, 4]: 0.33 ± 0.05 µM
Potency (rank-order of potency of binding; S = hSERT, N = hNET, D = hDAT) (hSERT, hNET, hDAT): S > D > N
Potency Range (difference between most potent and least potent binding) (hSERT, hNET, hDAT): 41 fold
Kd [3]: 0.099 ± 0.006 µM

CNC[C@@H](c1ccc2ccccc2c1)[C@@H](Cl)c1ccccc1 [MCJ001-Cl-RR, (2R,3R)-3-chloro-N-methyl-2-(naphthalen-2-yl)-3-phenylpropan-1-amine]
Kd [1]: 0.035 ± 0.002 µM
Kd [2, 4]: 0.29 ± 0.02 µM
Potency (rank-order of potency of binding; S = hSERT, N = hNET, D = hDAT) (hSERT, hNET, hDAT): S > N > D
Potency Range (difference between most potent and least potent binding) (hSERT, hNET, hDAT): 8.3 fold
Kd [3]: 0.234 ± 0.005 µM

CNC[C@@H](c1ccc2ccccc2c1)[C@H](Cl)c1ccccc1 [MCJ001-Cl-SR, (2R,3S)-3-chloro-N-methyl-2-(naphthalen-2-yl)-3-phenylpropan-1-amine]
Kd [1]: 0.055 ± 0.005 µM
Kd [2, 4]: 0.35 ± 0.02 µM
Potency (rank-order of potency of binding; S = hSERT, N = hNET, D = hDAT) (hSERT, hNET, hDAT): S > D > N
Potency Range (difference between most potent and least potent binding) (hSERT, hNET, hDAT): 13 fold
Kd [3]: 0.7 ± 0.05 µM

CNC[C@H](c1ccc2ccccc2c1)[C@H](OCCCCO[C@H](c1ccccc1)[C@H](CNC)c1ccc2ccccc2c1)c1ccccc1 [MCJ001-Dimer4-SS, (2S,2′S,3S,3′S)-3,3′-(butane-1,4-diylbis(oxy))bis(N-methyl-2-(naphthalen-2-yl)-3-phenylpropan-1-amine)]
Kd [1]: 0.094 ± 0.01 µM
Kd [2, 4]: 0.24 ± 0.001 µM
Potency (rank-order of potency of binding; S = hSERT, N = hNET, D = hDAT) (hSERT, hNET, hDAT): S > D > N
Potency Range (difference between most potent and least potent binding) (hSERT, hNET, hDAT): 2.8 fold
Kd [3]: 0.259 ± 0.005 µM

CNC[C@@H](c1ccc2ccccc2c1)[C@@H](F)c1ccccc1 [MCJ001-F-RR, (2R,3R)-3-fluoro-N-methyl-2-(naphthalen-2-yl)-3-phenylpropan-1-amine]
Kd [1]: 0.016 ± 0.001 µM
Kd [2]: 0.15 ± 0.009 µM
Potency (rank-order of potency of binding; S = hSERT, N = hNET, D = hDAT) (hSERT, hNET, hDAT): S > D > N
Potency Range (difference between most potent and least potent binding) (hSERT, hNET, hDAT): 11 fold
Kd [3]: 0.17 ± 0.01 µM

CN1CN[C@H](c2ccccc2)[C@@H](c2ccc3ccccc3c2)C1 [MCJ001-NH2-Cyc-SS, (4S,5S)-1-methyl-5-(naphthalen-2-yl)-4-phenylhexahydropyrimidine]
Kd [1]: 0.00026 ± 2e-05 µM
Binding at hSERT compared to PRC200-SS [1]: markedly enhanced potency at binding to hSERT
Binding at hSERT compared to PRC200-SS ([1]; listed as MCJ001-NH2-cyc-SS): greater binding at hSERT
Kd [2]: 0.0077 ± 0.0006 µM
Binding at hDAT compared to PRC200-SS [2]: several fold enhanced potency at binding to hDAT; also recorded: several fold more potent binding at hDAT
Potency (rank-order of potency of binding; S = hSERT, N = hNET, D = hDAT) (hSERT, hNET, hDAT): S>D>N
Potency (rank-order of potency of binding; S = hSERT, N = hNET, D = hDAT) (hSERT, hNET, hDAT; listed as MCJ001-NH2-cyc-SS): S > D > N
Potency Range (difference between most potent and least potent binding) (hSERT, hNET, hDAT): 50 fold
Kd [3]: 0.013 ± 0.001 µM
Binding at hNET compared to PRC200-SS ([3]; in words): lower potency of binding to hNET

CNC[C@H](c1ccc2ccccc2c1)[C@@H](N)c1ccccc1 [MCJ001-NH2-RS, (2S,3R)-N1-methyl-2-(naphthalen-2-yl)-3-phenylpropane-1,3-diamine]
Kd [1]: 0.1 ± 0.007 µM
Kd [2, 4]: 0.38 ± 0.03 µM
Potency (rank-order of potency of binding; S = hSERT, N = hNET, D = hDAT) (hSERT, hNET, hDAT): N > S > D
Potency Range (difference between most potent and least potent binding) (hSERT, hNET, hDAT): 4.9 fold
Kd [3]: 0.078 ± 0.004 µM

CN1CO[C@@H](c2ccccc2)[C@H](c2ccc3ccccc3c2)C1 [MCJ001-OH-Cyc-RR, (5R,6R)-3-methyl-5-(naphthalen-2-yl)-6-phenyl-1,3-oxazinane]
Kd [1]: 0.24 ± 0.02 µM
Kd [2, 4]: 0.18 ± 0.02 µM
Potency (rank-order of potency of binding; S = hSERT, N = hNET, D = hDAT) (hSERT, hNET, hDAT): D > S > N
Potency Range (difference between most potent and least potent binding) (hSERT, hNET, hDAT): 2.6 fold
Kd [3]: 0.46 ± 0.05 µM

C[N+]1(C)CN[C@H](c2ccccc2)[C@@H](c2ccc3ccccc3c2)C1.[Cl-] [MCJ002-NH2-Cyc-SS, (4S,5S)-1,1-dimethyl-5-(naphthalen-2-yl)-4-phenylhexahydropyrimidin-1-ium chloride]
Kd [1]: 0.0019 ± 0.0002 µM
Binding at hSERT compared to PRC200-SS [1]: greater binding at hSERT
Kd [2]: 0.018 ± 0.002 µM
Binding at hDAT compared to PRC200-SS [2]: Enhanced binding to hDAT
Potency (rank-order of potency of binding; S = hSERT, N = hNET, D = hDAT) (hSERT, hNET, hDAT): S > D > N
Potency Range (difference between most potent and least potent binding) (hSERT, hNET, hDAT): 53 fold
Kd [3]: 0.1 ± 0.01 µM

CCN(CC)C(=O)C1(c2ccccc2)CC1CN (stereo not shown) [Milnacipran, reference compound]
Potency (rank-order of potency of binding; S = hSERT, N = hNET, D = hDAT) (hSERT, hNET, hDAT): S > N > D

CCOc1ccccc1OC(c1ccccc1)C1CNCCO1 (stereo not shown) [Reboxetine, reference compound]
Potency (rank-order of potency of binding; S = hSERT, N = hNET, D = hDAT) (hSERT, hNET, hDAT): N > S > D
